Measured values reported in ChEMBL document CHEMBL1132788, “Analogues and derivatives of ciproxifan, a novel prototype for generating potent histamine H3-receptor antagonists” (Bioorg Med Chem Lett, 2000).

Key:
Histamine H3 receptor = Histamine H3 receptor (Rattus norvegicus, UniProt Q9QYN8); experiment: In vitro inhibitory activity against Histamine H3 receptor for K+ evoked depolarization-induced release of [3H]histamine from synaptosomes of rat cerebral cortex; assay type: subcellular, Brain
Histamine H3 receptor, sequence (Q9QYN8 whole entry): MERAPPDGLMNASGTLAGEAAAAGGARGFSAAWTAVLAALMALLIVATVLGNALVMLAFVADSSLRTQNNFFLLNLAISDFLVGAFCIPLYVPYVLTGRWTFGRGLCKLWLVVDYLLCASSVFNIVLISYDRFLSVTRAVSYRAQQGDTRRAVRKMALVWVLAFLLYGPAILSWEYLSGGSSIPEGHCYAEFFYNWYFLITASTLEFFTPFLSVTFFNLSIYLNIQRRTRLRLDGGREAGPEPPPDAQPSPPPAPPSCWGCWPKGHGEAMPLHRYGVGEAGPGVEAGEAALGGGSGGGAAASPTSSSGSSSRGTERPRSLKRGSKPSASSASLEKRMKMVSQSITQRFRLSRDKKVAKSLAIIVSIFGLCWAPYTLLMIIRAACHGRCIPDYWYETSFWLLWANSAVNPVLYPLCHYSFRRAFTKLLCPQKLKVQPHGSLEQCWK

[1] = target: Histamine H3 receptor (Mus musculus) (UniProt P58406); experiment: In vivo Histamine H3 receptor antagonism, dose required to increase in N-t-methylhistamine levels in Swiss mice brains 90 min after p.o. administration; assay type: functional, organism-based; details: Brain
Histamine H3 receptor (Mus musculus), sequence (P58406 whole entry): as the sequence (Q9QYN8 whole entry) above, with T15A, A286T, A290G, R387H, I389V counted along it

| Structure (SMILES) | Ki (Histamine H3 receptor) | ED50 [1] |
| --- | --- | --- |
| O=C(c1ccc(OCCc2c[nH]cn2)cc1)C1CC1 | 0.0021 µM | 0.21 mg/kg |
| O=C(CCCO)c1ccc(OCCCc2cnc[nH]2)cc1 | 0.03 µM |  |
| O=C(c1ccc(OCc2c[nH]cn2)cc1)C1CC1 | > 0.5 µM | 2.8 mg/kg |
| ClCC/C=C/c1ccc(OCCCc2c[nH]cn2)cc1 |  | 0.72 mg/kg |
| O=C(c1ccc(OCCCCc2cnc[nH]2)cc1)C1CC1 | 0.113 µM |  |
| CC(C)(C)CCC#C[C@@H]1C[C@H]1c1c[nH]cn1 |  | 0.12 mg/kg |
| O/N=C(/c1ccc(OCCCc2c[nH]cn2)cc1)C1CC1 |  | 0.21 mg/kg |
| O=C(CCCO)c1ccc(OCCCc2c[nH]cn2)cc1 |  | > 10 mg/kg |
| CCCCc1ccc(OCCCc2cnc[nH]2)cc1 | 0.06 µM |  |
| O=C(CCCN1CCCC1)c1ccc(OCCCc2c[nH]cn2)cc1 |  | > 10 mg/kg |
| OC(c1ccc(OCCCc2c[nH]cn2)cc1)C1CC1 (stereo not given) | 0.00058 µM | 0.18 mg/kg |

The remaining lines, values ahead:

| Ki (Histamine H3 receptor) | ED50 [1] | Structure (SMILES) |
| --- | --- | --- |
|  | > 10 mg/kg | c1nc(CCCOc2ccc(CC3CC3)cc2)c[nH]1 |
|  | 0.14 mg/kg | O=C(c1ccc(OCCCc2c[nH]cn2)cc1)C1CC1 |
|  | > 10 mg/kg | O=C(c1ccc(OCCCCc2c[nH]cn2)cc1)C1CC1 |
| 0.04 µM | > 10 mg/kg | OCCCC1(c2ccc(OCCCc3c[nH]cn3)cc2)OCCO1 |
|  | 0.96 mg/kg | CCCCc1ccc(OCCCc2c[nH]cn2)cc1 |
